Laboratory results from ChEMBL document CHEMBL3813664, “Synthesis and evaluation of biphenyl derivatives as potential downregulators of VEGF protein secretion and telomerase-related gene expressions” (Bioorg Med Chem, 2016).
Converted amounts (≈) assume the structure as drawn. The source made the active and inactive calls. The rule behind the calls is not given here.

Columns and labels:
[1] = Therapeutic index, ratio of IC50 for HEK293 cells to IC50 for human MCF7 cells; format: cell-based; settings: HEK293 cells versus MCF7 cells, read-out: Ratio IC50
HT-29 [2] = test: Cytotoxicity against human HT-29 cells assessed as reduction in cell growth after 3 days by MTT assay; format: functional, cell-based; settings: HT-29, 72 h
HT-29 [3] = test: Downregulation of c-Myc gene expression in human HT-29 cells assessed as gene expression levels at 20 ug/ml after 48 hrs by RT-qPCR analysis relative to control; format: functional
HT-29 [4] = test: Downregulation of TERT gene expression in human HT-29 cells assessed as gene expression levels at 20 ug/ml after 48 hrs by RT-qPCR analysis relative to control; format: functional
HT-29 [5] = test: Downregulation of VEGFA gene expression in human HT-29 cells assessed as gene expression levels at 20 ug/ml after 48 hrs by RT-qPCR analysis relative to control; format: functional
HEK293 = test: Cytotoxicity against HEK293 cells assessed as reduction in cell growth after 3 days by MTT assay; format: cell-based; settings: Homo sapiens, HEK293, 72 h
MCF7 = test: Cytotoxicity against human MCF7 cells assessed as reduction in cell growth after 3 days by MTT assay; format: functional, cell-based; settings: MCF7, 72 h
HT-29 [6] = test: Downregulation of VEGFA-165 secretion in human HT-29 cells assessed as protein secretion levels at 20 ug/ml after 72 hrs by ELISA relative to control; format: functional
[7] = Therapeutic index, ratio of IC50 for HEK293 cells to IC50 for human HT-29 cells; format: cell-based; settings: HEK293 cells versus HT-29 cells, read-out: Ratio IC50
HT-29 [8] = test: Downregulation of c-Myc gene expression in human HT-29 cells assessed as gene expression levels at 5 ug/ml after 48 hrs by RT-qPCR analysis relative to control; format: functional
HT-29 [9] = test: Downregulation of VEGFA-165 secretion in human HT-29 cells assessed as protein secretion levels at 5 ug/ml after 72 hrs by ELISA relative to control; format: functional
HT-29 [10] = test: Downregulation of TERT gene expression in human HT-29 cells assessed as gene expression levels at 5 ug/ml after 48 hrs by RT-qPCR analysis relative to control; format: functional
HT-29 [11] = test: Downregulation of VEGFA gene expression in human HT-29 cells assessed as gene expression levels at 5 ug/ml after 48 hrs by RT-qPCR analysis relative to control; format: functional
HT-29 [12] = test: Downregulation of VEGFA-165 secretion in human HT-29 cells assessed as protein secretion levels at <1.1 ug/ml after 72 hrs by ELISA relative to control; format: functional, cell-based
HT-29 [13] = test: Downregulation of VEGFA-165 secretion in human HT-29 cells assessed as protein secretion levels at 30 ug/ml after 72 hrs by ELISA relative to control; format: functional
HT-29 [14] = test: Downregulation of VEGFA gene expression in human HT-29 cells assessed as gene expression levels at 30 ug/ml after 48 hrs by RT-qPCR analysis relative to control; format: functional
HT-29 [15] = test: Downregulation of TERT gene expression in human HT-29 cells assessed as gene expression levels at 30 ug/ml after 48 hrs by RT-qPCR analysis relative to control; format: functional
HT-29 [16] = test: Downregulation of c-Myc gene expression in human HT-29 cells assessed as gene expression levels at 30 ug/ml after 48 hrs by RT-qPCR analysis relative to control; format: functional
HT-29 [17] = test: Downregulation of VEGFA-165 secretion in human HT-29 cells assessed as protein secretion levels at 10 ug/ml after 72 hrs by ELISA relative to control; format: functional
HT-29 [18] = test: Downregulation of c-Myc gene expression in human HT-29 cells assessed as gene expression levels at 10 ug/ml after 48 hrs by RT-qPCR analysis relative to control; format: functional
HT-29 [19] = test: Downregulation of VEGFA gene expression in human HT-29 cells assessed as gene expression levels at 10 ug/ml after 48 hrs by RT-qPCR analysis relative to control; format: functional
HT-29 [20] = test: Downregulation of TERT gene expression in human HT-29 cells assessed as gene expression levels at 10 ug/ml after 48 hrs by RT-qPCR analysis relative to control; format: functional

## COc1ccc(-c2ccc(O)cc2)cc1OC
[1]
  selectivity ratio: > 3
HT-29 [2]
  IC50: 26 µg/mL (≈ 113 µM)
HT-29 [3]
  Activity: 87%
HT-29 [4]
  Activity: 22%
HT-29 [5]
  Activity: 41%
HEK293
  IC50: > 100 µg/mL
MCF7
  IC50: 34 µg/mL (≈ 148 µM)
HT-29 [6]
  Activity: 55%
[7]
  selectivity ratio: > 4

## C=CCc1ccc(O)c(-c2ccc(O)c(CC=C)c2)c1 [HONOKIOL]
HT-29 [8]
  Activity: 45%
[1]
  selectivity ratio: 1.9
HT-29 [9]
  Activity: 55%
HT-29 [10]
  Activity: 45%
HEK293
  IC50: 9.3 µg/mL (≈ 34.9 µM)
HT-29 [11]
  Activity: 36%
MCF7
  IC50: 5 µg/mL (≈ 18.8 µM)
[7]
  selectivity ratio: 1.5

## COc1cccc(-c2ccccc2)c1
HT-29 [8]
  Activity: 81%
[1]
  selectivity ratio: 0.1
HT-29 [2]
  IC50: 1.1 µg/mL (≈ 5.97 µM)
HT-29 [9]
  Activity: 57%
HT-29 [10]
  Activity: 77%
HEK293
  IC50: 5.5 µg/mL (≈ 29.9 µM)
HT-29 [11]
  Activity: 73%
MCF7
  IC50: 47 µg/mL (≈ 255 µM)
HT-29 [12]
  Activity: inactive
[7]
  selectivity ratio: 5.1

## COc1ccc(-c2ccccc2O)c(OC)c1
HT-29 [13]
  Activity: 29%
HT-29 [14]
  Activity: 56%
HT-29 [15]
  Activity: 29%
HT-29 [16]
  Activity: 54%
HT-29 [2]
  IC50: 33.7 µg/mL (≈ 146 µM)
HEK293
  IC50: > 100 µg/mL
MCF7
  IC50: > 100 µg/mL
[7]
  selectivity ratio: > 3

## Oc1ccc(-c2ccccc2)cc1
[1]
  selectivity ratio: 1
HT-29 [2]
  IC50: 25 µg/mL (≈ 147 µM)
HT-29 [3]
  Activity: 55%
HT-29 [4]
  Activity: 81%
HT-29 [5]
  Activity: 65%
HEK293
  IC50: 45 µg/mL (≈ 264 µM)
MCF7
  IC50: 47 µg/mL (≈ 276 µM)
HT-29 [6]
  Activity: 48%
[7]
  selectivity ratio: 2

## COc1cccc(-c2cccc(O)c2)c1
[1]
  selectivity ratio: 1
HT-29 [2]
  IC50: 16 µg/mL (≈ 79.9 µM)
HEK293
  IC50: 34 µg/mL (≈ 170 µM)
MCF7
  IC50: 33 µg/mL (≈ 165 µM)
HT-29 [17]
  Activity: 31%
HT-29 [18]
  Activity: 71%
HT-29 [19]
  Activity: 21%
[7]
  selectivity ratio: 2
HT-29 [20]
  Activity: 88%
